Reference: article PMC10239968, “[^18F]AlF-NOTA-ADH-1: A new PET molecular radiotracer for imaging of N-cadherin-positive tumors” (Frontiers in Oncology, 2023)

Legend:
[1] = system: pancreatic PDX tumor xenografts; assay: in vivo; parameters: species or system BALB/c nu/nu mice; conditions: PDX xenograft nude mice, n=5, mean±SD
Method: All animal experiments were performed in accordance with and approved by the Institutional Animal Care and Use Committee guidelines of the First Affiliated Hospital of Zhejiang University School of Medicine. BALB/c nu/nu mice (female, 20 ± 3 g, 4- to 6-week-old; Department of Laboratory Animal Science, Zhejiang University) were used in this study. The SW480 and BxPC3 xenografts were generated, and 5×10^6 tumor cells were subcutaneously injected into the flanks of female athymic nude mice. The PDX-bearing mouse models were established as follows. Pancreatic cancer (diagnosed as pancreatic ductal adenocarcinoma) tissues were obtained from the surgery of a patient. Written informed consent was obtained from the patient, and the research protocol was approved by the Clinical Research Ethics Committee of the First Affiliated Hospital of Zhejiang University School of Medicine. The sample was sectioned into about 1mm^3 pieces, and the tumor tissues were subcutaneously implanted into BALB/c nu/nu mice flanks. Mice were allowed free access to sterile water and food and were kept under strict disease-free conditions with controlled temperature (~25°C), humidity (50-70%), and circadian rhythms (12-hour light/dark cycles). All necessary procedures were carried out to minimize discomfort and avoid the waste of animals. The length and width of the tumor were measured every other day. Biodistribution studies and positron emission tomography in mice were performed after the tumor volume reached 150 to 200 mm^3.
The BALB/c nude mice were randomized into different tumor models (SW480, BxPC3, and pancreatic PDX), including 5 mice per group. Each nude mouse was injected with 0.74MBq (20μCi) [^18F]AlF-NOTA-ADH-1 through the caudal vein. Blood was collected from the orbit, and the mice were dissected to collect the brain, heart, lung, liver, liver, spleen, stomach, intestine, muscle, bone and others at 30 min, […], 60min, 90min and 120min after injection. In the blocked group, the study was performed with a saturating dose of ADH-1 (20 mg/kg of mouse body weight) intravenously administered 60min before the intravenous injection of [^18F]AlF-NOTA-ADH-1 in the pancreatic PDX model and SW480 xenograft model. The mice in the tumor xenograft model were sacrificed 1h after [^18F]AlF-NOTA-ADH-1 injection. The nude mice were dissected, and tumor tissues and related tissues (blood, brain, heart, lung, liver, spleen, kidney, stomach, intestine, muscle and bone) were weighed, and their radioactivity was measured by γ-counter. The radioactivity results were recorded as % ID/g.

[2] = In vitro stability in PBS; type: physicochemical; conditions: 3.7 MBq in 0.5 mL PBS, 37 °C (results; method: room temperature), radio-TLC or radio-HPLC
Method: The stability of [^18F]AlF-NOTA-ADH-1 was tested in PBS and bovine serum. In brief, 3.7 MBq of[^18F]AlF-NOTA-ADH-1 was pipetted into 0.5 mL of PBS and incubated in PBS at room temperature or bovine serum at 37°C. For the study, an aliquot of the solution was directly taken at 1, 6, and 8 h after incubation, and the radiochemical purity was determined by radio-TLC or radio-HPLC under identical conditions.

[3] = system: pancreatic PDX tumor xenografts; assay: Micro-PET imaging, PDX tumor model; type: in vivo, nude mice; conditions: 60 min p.i.
Method: [^18F]AlF-NOTA-ADH-1 was evaluated by micro-PET imaging on nude mice bearing a PDX tumor, SW-480 and BxPC3 tumor xenografts. Each tumor-bearing nude mouse was injected with 3.7MBq [^18F]AlF-NOTA-ADH-1 via the tail vein. After being anesthetized with isoflurane, tumor-bearing nude mice were imaged using a micro-PET/CT scanner at 60 minutes post-injection under continuous isoflurane inhalation using a nasal mask with a connecting tube. Micro-PET/CT scanning was performed after low-dose 3D acquisition CT scanning at 10 minutes per bed. A blocking study was conducted, in which a saturating dose of unlabeled ADH-1 (20 mg/kg of mouse body weight) was intravenously administered 60 min before the intravenous injection of [^18F]AlF-NOTA-ADH-1.
The three-dimensional volume of interest (VOI) was used to assess the standard uptake value (SUV) of selected organs. The Seimens Inveon analysis software configured with micro-PET/CT was used to delineate the region of interest along the edge of the tumor and each normal tissue on the PET image. Subsequently, the SUV of each region of interest was measured, and the tumor/non-tumor ratio (T/NT) between the tumor and normal tissue was measured.

[4] = blocking (ADH-1 20 mg/kg i.v. 60min before), 60min p.i.

## CC(=O)N[C@H]1CSSC[C@@H](C(=O)NCCNC(=O)CN2CCN(CC(=O)O)CCN(CC(=O)O)CC2)NC(=O)[C@H](C(C)C)NC(=O)[C@H](C)NC(=O)[C@H](Cc2c[nH]cn2)NC1=O [[^18F]AlF-NOTA-ADH-1]
[1]; [4]
  T/Blood ratio: 9.39± 0.10
  T/Muscle ratio: 2.12±0.06
  Tumor uptake: 3.75±0.07 %ID/g
[1]; non-blocking, 30min p.i.
  T/Blood ratio: 10.72± 1.02
  T/Muscle ratio: 5.69±0.72
  Tumor uptake: 8.04±1.82 %ID/g
[1]; non-blocking, 60min p.i.
  T/Blood ratio: 19.21± 2.20
  T/Muscle ratio: 8.70±2.68
  Tumor uptake: 10.76±2.16 %ID/g
[1]; non-blocking, 90min p.i.
  T/Blood ratio: 13.54± 0.35
  T/Muscle ratio: 4.15±1.86
  Tumor uptake: 7.18±0.53 %ID/g
[1]; non-blocking, 120min p.i.
  T/Blood ratio: 10.27±1.36
  T/Muscle ratio: 3.97±1.56
  Tumor uptake: 4.93±1.65 %ID/g
[2]
  Radiochemical purity after 8 h in PBS: about 95.5%
[3]; 3.7MBq i.v., SUV-based T/NT
  Micro-PET tumor/muscle ratio: 8.069±2.832
[3]; printed in the sentence on blocking with unlabeled ADH-1 (group unclear)
  Micro-PET T/Lung: 5.062 ± 0.805
